Source: PMC7399811, “Analogues of a Cyclic Antimicrobial Peptide with a Flexible Linker Show Promising Activity against Pseudomonas aeruginosa and Staphylococcus aureus” (Antibiotics, 2020)
In brackets after ≈: the same amount, converted by molar mass. Square brackets hold non-standard residues; d marks the D form. Peptide text beside a SMILES is read from it. Bip = N[C@@H](Cc1ccc(-c2ccccc2)cc1)C(=O)O; 2Nal = N[C@@H](Cc1ccc2ccccc2c1)C(=O)O; Dab = NCC[C@H](N)C(=O)O; AEEA = NCCOCCOCC(=O)O

Columns and labels:
[1] = tested on: P. aeruginosa ATCC 27853; assay: Time-kill kinetics; type: cell-based; conditions: for kind of activity in time-kill experiments: P. aeruginosa; for effect on CFU: P. aeruginosa late exponential phase (OD600 ~0.1)
Protocol: (§1) The killing kinetics of compound 11 (Figure 1A–D) were performed in two types of experiments on approximately 5 × 10^5 (exponential phase) and 5 × 10^7 (late exponential phase) colony forming units (CFU). […] Colistin and chloramphenicol was used as control antibiotics against P. aeruginosa and S. aureus, respectively. Chloramphenicol was chosen against S. aureus because initial experiments indicated 11 to be bacteriostatic. Time-kill experiments were performed on balanced exponentially growing cultures of S. aureus ATCC 29213 or P. aeruginosa ATCC 27853. We used balanced cultures, as described in Oddo et al.. In brief, overnight cultures were prepared in MHB broth at 37 °C, with shaking. Overnight cultures, were back diluted and grown exponentially for no less than 8–10 generations, before experimentation. When experiments were done at OD600 = 0.0005 ~5 × 10^5, the cultures were back diluted into fresh MHB, heated to 37 °C from an exponentially growing culture. In the late exponential phase, cultures were simply kept in the exponential phase, until OD600 = 0.1, before experimentation.

[2] = tested on: S. aureus ATCC 29213; assay: Time-kill kinetics; type: cell-based
Protocol: as §1

[3] = tested on: E. coli ATCC 29522; type: cell-based; conditions: for Minimum inhibitory concentration EC: ATCC 29522
Protocol: (§2) Bacterial strains (E. coli ATCC 29522, S. aureus ATCC 29213, A. baumannii ATCC 19606, and P. aeruginosa ATCC 27853) were grown overnight on LB agar plates at 37 °C. Overnight cultures were prepared by inoculation of two to three colonies in 10 mL non-cation adjusted Mueller–Hinton broth (MHB) media (BD BBLTM Beef extract powder, BD BactoTMCasamino acids, and DIFCO soluble starch). Bacterial inoculum for MIC testing was prepared as balanced cultures, as previously described. The bacterial suspension was adjusted using MHB to an OD600 of 0.1, approximately 1·10^8 colony forming units (CFU/mL), and then diluted 1:200 in MHB, to give a final bacterial suspension of 5·10^5 CFU/mL, as described by Wiegand et al.. […] For MIC determination, all peptides were measured in triplicates using the protocol described by Wiegand et al. for “antimicrobial peptides that require the presence of acetic acid/BSA”. In brief, 20 µL peptide solution and gentamycin solution was transferred to column 1 of 96-well plates. Next, 10 µL 0.2% BSA; 0.01% acetic acid MHB media was transferred to column 2–11. Subsequently, peptides were serially diluted two-fold in the MIC plate and 90 µL bacterial suspension was transferred to all wells in column 1–11. Next, 100 µL bacterial suspension was transferred to column 12 D–F (growth control) and 100 µL media to column 12 A–C (sterility control). After an overnight incubation at 37 °C of the MIC plates, MIC values were determined as the lowest concentration at which there was no visible bacterial growth. For the inoculum control, 10 µL of solution from a positive-growth control well from each bacterial strain was dissolved in 990 µL phosphate-buffered saline (PBS) (1:100 dilution) in an Eppendorf tube. This solution was vortexed and 100 µL transferred to another Eppendorf tube containing 900 µL PBS (1:10 dilution) and vortexed. Then, 100 µL of each dilution was spread onto the MHB media plates, in triplicates, to achieve a CFU dilution of 1:1000 and 1:10,000, respectively. The plates were incubated overnight at 37 °C. The colonies were counted and 50 colonies were expected on the 1:10,000 plates and 500 on the 1:1000 plates.

[4] = tested on: A. baumannii ATCC 19606; type: cell-based; conditions: for Minimum inhibitory concentration AB: ATCC 19606
Protocol: as §2

[5] = tested on: red blood cells; conditions: at 150 µM peptide; 0.5% v/v RBC in PBS, 1 h 37 °C, absorbance 414 nm, normalized to melittin (100%) and PBS (0%)
Protocol: A total of 150 µL of 5 µM melittin was added to the positive control wells 1-6H of a V-shaped 96-well polypropylene plate and left overnight. The melittin solution was removed and the positive control wells were washed 3 times with 150 µL PBS. Afterwards, a 2.5 µM melittin solution was added to the positive control wells. For the assay, 0-negative blood in EDTA was used. Blood was washed by mixing 3 mL of PBS with 1 mL of whole blood, and centrifuged for 8 min at 3000 rpm. The supernatant was discarded and 4 mL of PBS added, mixed gently, and centrifuged. This wash cycle was repeated but the last centrifuge velocity was raised to 4000 rpm. Next, 40 µL red blood cells (RBC) was suspended in 8 mL of PBS to achieve an RBC suspension of 0.5% volume/volume (v/v). Peptide solutions were prepared at 600 µM, two times the highest concentration. A total of 150 µL peptide solution was transferred to row A. Next, 75 µL PBS was transferred to wells B1 to G12, as well as H7-12 (negative control), and the peptides were serially diluted two-fold. Then, 75 µL RBC suspension was added to all wells and the plate was covered with a Microseal® film and incubated for 1 h at 37 °C. Next, the plate was centrifuged for 10 min at 4000 rpm. Subsequently, 60 µL supernatant was transferred into the corresponding wells of a clear, polystyrene, flat-bottomed 96-well ELISA plate. The absorbance was read at λ = 414 nm with a VersaMaxTM Tunable Microplate Reader and the data were evaluated on Softmax® Pro. The results were normalized with respect to the average positive (100%) and negative (0%) controls, as described previously [43].

[6] = tested on: P. aeruginosa ATCC 27853; type: cell-based
Protocol: as §2

[7] = tested on: S. aureus ATCC 29213; type: cell-based
Protocol: as §2

[8] = P. aeruginosa late exponential phase, 5× MIC

`N=C(N)NCCC[C@@H]1NC(=O)[C@H](Cc2ccc3ccccc3c2)NC(=O)[C@H](CCN)NC(=O)[C@H](CC(N)=O)NC(=O)[C@H](CCN)NC(=O)[C@H](Cc2ccc3ccccc3c2)NC(=O)COCCOCCNC(=O)[C@H](Cc2ccc(-c3ccccc3)cc2)NC(=O)[C@H](CCN)NC1=O` [compound 11] (cyclo([Dab][2Nal]R[Dab][Bip][AEEA][2Nal][Dab]N)) was tested, and the “kind of activity in time-kill experiments” value [1] was “bactericidal”, the “reduction in viable bacterial counts” value ([1]; P. aeruginosa exponential phase (~5 × 10^5 CFU), 1× MIC) was ~ 2 log and the “reduction in CFU” value ([1]; P. aeruginosa exponential phase, 3–5× MIC, within the first hour) was greater than 3 log. For the same compound, the “effect on CFU” value ([1]; 1× MIC) was “virtually no effect”, the “reduction in CFU” value ([1]; P. aeruginosa late exponential phase, 3× MIC) was 1 log and the “reduction in CFU” value [1, 8] was 3 log. For the same compound, the “reduction in CFU” value ([2]; S. aureus exponential phase, 1× MIC) was 2 log, the “reduction in CFU” value ([2]; S. aureus exponential phase, 3× MIC and 5× MIC) was greater than 3 log and the “reduction in CFU” value ([2]; S. aureus late exponential phase, 5× MIC, regrowth after 24 h) was 3 log. For the same compound, the “Minimum inhibitory concentration EC” value [3] was 32 µg/mL (≈ 24 µM), the “activity in MIC assays” value ([3]; E. coli) was “no activity” and the “activity in MIC assays” value ([4]; A. baumannii) was “no activity”. For the same compound, the “Minimum inhibitory concentration AB” value [4] was 32 µg/mL (≈ 24 µM) and the “percent hemolytic activity against red blood cells (%H)” value (“percent hemolytic activity … (%H)” below) [5] was 36%.
With `NCCCC[C@@H]1NC(=O)[C@H](Cc2ccc3ccccc3c2)NC(=O)COCCOCCNC(=O)[C@H](Cc2ccc(-c3ccccc3)cc2)NC(=O)[C@H](CCCCN)NC(=O)[C@H](CCCCN)NC(=O)[C@H](Cc2ccccc2)NC(=O)[C@H](CCCCN)NC(=O)[C@H](CC(N)=O)NC1=O` [compound 5] (cyclo(KFKK[Bip][AEEA][2Nal]KN)) the “Minimum inhibitory concentration PA” value [6] was 32 µg/mL (≈ 23.9 µM), the “Minimum inhibitory concentration EC” value [3] was greater than 64 µg/mL and the “Minimum inhibitory concentration AB” value [4] was greater than 64 µg/mL. The “Minimum inhibitory concentration SA” value [7] was greater than 64 µg/mL and the “percent hemolytic activity … (%H)” value [5] was 4%.
With `N=C(N)NCCC[C@@H]1NC(=O)[C@H](Cc2ccc3ccccc3c2)NC(=O)COCCOCCNC(=O)[C@H](Cc2ccc(-c3ccccc3)cc2)NC(=O)[C@H](CCCNC(=N)N)NC(=O)[C@H](CCCNC(=N)N)NC(=O)[C@H](Cc2ccc3ccccc3c2)NC(=O)[C@H](CCCNC(=N)N)NC(=O)[C@H](CC(N)=O)NC1=O` [compound 14] (cyclo(R[2Nal]RR[Bip][AEEA][2Nal]RN)) the “Minimum inhibitory concentration PA” value [6] was 32 µg/mL (≈ 21.3 µM), the “Minimum inhibitory concentration EC” value [3] was greater than 64 µg/mL and the “Minimum inhibitory concentration AB” value [4] was greater than 64 µg/mL. For the same compound, the “Minimum inhibitory concentration SA” value [7] was 32 µg/mL (≈ 21.3 µM) and the “percent hemolytic activity … (%H)” value [5] was 68%.
With `N=C(N)NCCC[C@@H]1NC(=O)[C@H](CC(N)=O)NC(=O)[C@H](CCN)NC(=O)[C@H](Cc2ccc3ccccc3c2)NC(=O)COCCOCCNC(=O)[C@H](Cc2ccc(-c3ccccc3)cc2)NC(=O)[C@H](CCN)NC(=O)[C@H](CCN)NC(=O)[C@H](Cc2ccc3ccccc3c2)NC1=O` [compound 10] (cyclo(R[2Nal][Dab][Dab][Bip][AEEA][2Nal][Dab]N)) the “Minimum inhibitory concentration PA” value [6] was 2 µg/mL (≈ 1.5 µM), the “Minimum inhibitory concentration EC” value [3] was 32 µg/mL (≈ 24 µM) and the “Minimum inhibitory concentration AB” value [4] was 32 µg/mL (≈ 24 µM). The “Minimum inhibitory concentration SA” value [7] was 2 µg/mL (≈ 1.5 µM) and the “percent hemolytic activity … (%H)” value [5] was 66%.
For `NCCCC[C@@H]1NC(=O)[C@H](Cc2ccc3ccccc3c2)NC(=O)COCCOCCNC(=O)[C@H](Cc2ccccc2)NC(=O)[C@H](CCCCN)NC(=O)[C@H](CCCCN)NC(=O)[C@H](Cc2ccc3ccccc3c2)NC(=O)[C@H](CCCCN)NC(=O)[C@H](CC(N)=O)NC1=O` [compound 6] (cyclo(K[2Nal]KKF[AEEA][2Nal]KN)), the “Minimum inhibitory concentration PA” value [6] was 32 µg/mL (≈ 24.4 µM), the “Minimum inhibitory concentration EC” value [3] was greater than 64 µg/mL and the “Minimum inhibitory concentration AB” value [4] was greater than 64 µg/mL. The “Minimum inhibitory concentration SA” value [7] was greater than 64 µg/mL and the “percent hemolytic activity … (%H)” value [5] was 6%.
With colistin [reference compound] the “kind of activity in time-kill experiments” value [1] was “bactericidal”, the “effect on CFU” value ([1]; 1× MIC) was “virtually no effect” and the “reduction in CFU” value [1, 8] was 1 log.
